# Literature values, collected in patent US20050049232A1, “Composition” (priority 2001, published 2005).
# Tested on: androgenic alopecia patients
# Settings: topical solutions, alone or in combination with skin penetration enhancers such as DMSO
compound,measurement,value
"Nc1cc(N2CCCCC2)nc(N)[n+]1[O-] [minoxidil, 2,4-diamino-6-piperidino-pyrimidine-3-oxide]",patients with moderate to dense regrowth of hair,less than 40%
